Assay results reported in PubChem BioAssay AID1406 (The Scripps Research Institute Molecular Screening Center, 2008).
Calls of active or inactive are those of the source.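 The calls were made as follows: active = STAT1 reporter activators whose half-maximal activating concentration EC50 is 10 µM or lower; inactive = EC50 above 10 µM or no activation.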

tested on: NIH 3T3 STAT1 luciferase reporter, luminescence; test: STAT1 transcription enhancement, IFN-gamma induced – cell-based, NIH 3T3, luciferase luminescence, counter-screen for STAT3 activator project, dose response (AID 1406); conditions: cells stimulated with IFN-gamma at EC80

Structure (SMILES)	EC50
COc1cc(NC(=O)c2cc(C(C)C)on2)c(OC)cc1Cl	> 55.7 µM (inactive)
Cn1nc(-c2ccc(Cl)cc2)c2cc(C(=O)NCCCN3CCCC3)sc21	21.6 µM (inactive)
COCCSc1ccccc1C(=O)NCCc1ccccc1	> 55.7 µM (inactive)
CN1C(=O)/C(=C\c2cc(Br)cs2)c2ccccc21	> 55.7 µM (inactive)
COCCNC(=O)C(=O)NNC(=O)c1ccccc1OC	> 55.7 µM (inactive)
CCCc1nnc(N2C(=O)c3cccc4cccc(c34)C2=O)s1	> 55.7 µM (inactive)
CCOc1ccccc1C1CC(c2cccs2)=NN1S(C)(=O)=O (configuration not stated)	> 55.7 µM (inactive)
COc1ccc(NC(=O)N2CCn3c2nc2ccccc23)cc1	> 55.7 µM (inactive)
Cn1nc(-c2ccc(Cl)cc2)c2cc(C(=O)NCC3CCCO3)sc21 (configuration not stated)	> 55.7 µM (inactive)
CC(=O)N1N=C(c2ccccc2O)OC1(C)CC(=O)Nc1ccccc1 (configuration not stated)	> 55.7 µM (inactive)
O=C(Cc1c[nH]c2ccccc12)Nc1nnc(C2CC2)s1	> 55.7 µM (inactive)
COc1ccc(Cl)cc1NC(=O)Nc1ccc(Br)cn1	> 55.7 µM (inactive)
Nc1nnc(Cc2c[nH]c3ccccc23)s1	> 55.7 µM (inactive)
NNc1ncnc2sc3c(c12)CCC3	> 55.7 µM (inactive)
Cn1nc(-c2ccc(Cl)cc2)c2cc(C(=O)NCCCN3CCOCC3)sc21	> 55.7 µM (inactive)
CN1CCN(C(=O)CNc2ccc(C(F)(F)F)cc2[N+](=O)[O-])CC1	> 55.7 µM (inactive)
CC1Cc2ccccc2N1Cc1cc(=O)n2ccsc2n1 (configuration not stated)	> 55.7 µM (inactive)
